Common to all, as to format: cell-based
In assay [1] the test system is ERK phosphorylation in primary rat astrocytes. Put plainly: ERK phosphorylation in primary rat astrocytes (MSD pERK assay). The settings on record: Astrocyte, 10 min, 10-minute exposure, mean of n=3. The procedure:
(§1) For the experiments using rat primary astrocytes, eight-point concentration-response curves were generated for AKT and ERK phosphorylation in primary rat astrocytes cultures in response to a 10-minute treatment with ozanimod (100 nM-46 pM), Compound 3 (10 nM-5 pM), Compound 1 (10 nM-5 pM), or FTY720-P (10 nM-5 pM). Phosphorylation of AKT and ERK was quantified using Meso Scale Discovery assay kits (MSD Mutli-Spot Phopho-AKT (Ser473) Assay Kit and MSD Multi-Spot MAP Kinase Phosphoprotein Assay Whole Cell Lysate Kit) and imaging platform. AKT and ERK phosphorylation within treated astrocytes were assessed as the mean change in signal intensity compared to DMSO vehicle and the half maximal effective concentration (EC50) was determined using non-linear regression.
(§2) Embryonic day18 (E18) rat cortices were purchased from BrainBits LLC. (Springfield, Ill.) and were cultured according to the supplier's protocol. Briefly, cortices were incubated at 37° C. for 10 minutes in activated papain solution before trituration in hibernation medium containing B27 supplement using a modified siliconized glass Pasteur pipette. The cell suspension was centrifuged at 1100×g for 1 minute at room temperature (RT). The cell pellet was then resuspended in NbAstro medium (BrainBits LLC.) and the live cell density was assessed using a cell counter. Primary cells were plated at a density of 7500 cells/cm2 in T75 tissue culture flasks coated with poly-D-lysine (PDL) in a total volume of 12 mL of NbAstro media, and incubated for 10-14 days at 37° C. 5% CO2. After 10-14 days, primary astrocytes in passage 0 (P0) that had reached confluency in the T75 flasks were detached using TrypLE detachment reagent, pelleted at 300×g, and plated into poly-d-lysine coated T225 flasks in 20 mL of NbAstro media, and incubated for another 7 days at 37° C. 5% CO2. After 7 days, primary P1 astrocytes in confluent T225 flasks were detached using TrypLE detachment reagent, pelleted at 300×g, and plated intopoly-d-lysine coated 96-well plates at 10,000 cells per well in 200 μL of NbAstro media, and incubated for 7 days at 37° C. 5% CO2. After 7 days, P2 primary astrocytes were utilized for pAKT and pERK assays.
The pERK (phosphorylated ERK)/pMAPkinase assay was performed according to the manufacturer's protocol. Briefly, MSD pERK/pMAPkinase plates were blocked for 1-2 hours by adding 150 μL of blocker A prepared in 1× Tris wash buffer. […] Following antibody incubation, plates were washed three times with 150 μL of 1× Tris wash buffer and 1× read buffer (150 μL/well) was added. Finally, the plates were read in the MSD imager platform to assess the pERK levels.
(§3) AKT and ERK phosphorylation data were analyzed by non-linear regression (GraphPad Prism, version 6) to determine the EC50 values.

For assay [2], the system named is ERK phosphorylation in primary human astrocytes. In words: ERK phosphorylation in primary human cortical astrocytes (AlphaLISA SureFire Ultra). The settings on record: Astrocyte, 10 min, 10-minute exposure, n=3-5. On the procedure: (§4) For the experiments using mouse and human primary astrocytes, ten-point concentration-response curves (90 nM-4.57 pM or 30 nM-1.52 pM) were generated for AKT and/or ERK phosphorylation in primary human and mouse cortical astrocytic cultures in response to a 10-minute treatment with ozanimod, Compound 3, Compound 1, or FTY720-P. AKT and ERK phosphorylation were quantified using AlphaLISA SureFire Ultra Assay kits and the EnVision Plate Reader. AKT and ERK phosphorylation within treated astrocytes were expressed as the mean change in signal intensity compared to the dimethyl sulfoxide (DMSO) vehicle and the half maximal effective concentration (EC50) was determined using non-linear regression.
Primary human astrocytes were purchased from ScienCell Research Laboratories, Inc. and cultured according to the supplier's protocol. The astrocytes were obtained from the human cerebral cortex, cryopreserved at passage one, and delivered frozen. The frozen vials of cells were gently thawed in a 37° C. water bath. Once the contents of the vial were completely thawed, the cell solution was dispensed into a poly-L-lysine (PLL) coated T75 tissue culture flask with 16 mL of human Astrocyte Media, (ScienCell Research Laboratories, Inc.) and incubated at 37° C. 5% CO2. Once the human astrocytes had reached confluency in the T75 flask, they were detached using trypsin/EDTA 0.25%, pelleted at 300×g, split into two PLL coated T225 tissue culture flasks in 40 mL of astrocyte media, and incubated at 37° C. 5% CO2. Once the astrocytes reached confluency in the T225 flasks, they were detached using trypsin/EDTA 0.25% solution, pelleted at 300×g, plated into poly-D-lysine (PDL) coated 96-well plates at a density of 10,000 cells per well in 200 μL human Astrocyte Media, and incubated at 37° C. 5% CO2. Half of the media was replenished every 3-4 days. After 5-7 days of incubation, the P2 human astrocyte plates were utilized for the pERK and pAKT assays.
Cell lysis and detection of pERK were performed according to the PerkinElmer AlphaLISA SureFire Ultra p-ERK1/2 (Thr202/TYR 204) assay protocol. Astrocytes were lysed in the 96-well plate following a 10 minute incubation with compounds with shaking at RT. The astrocytic lysates (10 μL/well) were transferred into a 384-well OptiPlate. As specified by the assay protocol, an acceptor bead mix and a donor bead mix (5 μL/well for each) were added to the plate under subdued light. Plates were sealed with adhesive plate seals and incubated in the dark for 2 hours at RT. The plates were read on the EnVision Plate Reader to assess the pERK levels.
(§5) The AKT and ERK phosphorylation data, collected by a Perkin Elmer EnVision Microplate Reader, was analyzed by non-linear regression (GraphPad Prism, version 7.03) to determine the EC50 values.
(In general: Alpha assays give light when donor and acceptor beads are brought close together.)

Assay [3] has as its system AKT phosphorylation in primary mouse astrocytes. Put plainly: AKT phosphorylation in primary mouse cortical astrocytes (AlphaLISA SureFire Ultra). To be noted: Astrocyte, 10 min, 10-minute exposure, mean of n=3. The procedure: as §4
Timed pregnant (E16) C57BL/6J female mice arrive to the test facility on a weekly basis and were housed and cared for according to appropriate protocols for this model. Primary mouse cortical astrocytes are harvested from P0-P2 pups. The newly born animals were deeply anesthetized on ice, decapitated, and the brains were rapidly removed and stored in ice-cold NbAstro media (BrainBits, LLC). Cells were dissociated from freshly dissected cortices by mechanical disruption in the presence of trypsin and DNase. Cells were put into a PDL coated T75 tissue culture flask containing 16 mL NbAstro Media and incubated at 37° C. 5% CO2. Once the mouse astrocytes had reached confluency in the T75 flask, they were detached using TripLE detachment reagent, pelleted at 300×g, expanded into two T225 PDL coated tissue culture flasks containing 40 mL of NbAstro and incubated at 37° C. 5% CO2. Once the astrocytes reached confluency in the T225 flasks they were detached using TrypLE detachment reagent, pelleted at 300×g, plated into PDL coated 96-well plates at a density of 10,000 cells per well in 200 μL NbAstro and incubated at 37° C. 5% CO2. Half of the media was replenished every 3-4 days. After 5-7 days of incubation, the P2 mouse astrocyte plates were utilized for the pERK and pAKT assays.
Cell lysis and detection of pAKT were performed according to the PerkinElmer AlphaLISA SureFire Ultra pAKT1/2/3 ([…]) assay protocol. Astrocytes were lysed in the 96-well plate following a 10 minute incubation with compounds with shaking at room temperature (RT). The astrocytic lysates (10 μL/well) were transferred into a 384-well OptiPlate. As specified by the assay protocol, an acceptor bead mix and a donor bead mix (5 μL/well for each) were added to the plate under subdued light. […] The plates were read on the EnVision Plate Reader to assess the pAKT levels.
as §5

Assay [4] has as its system AKT phosphorylation in primary rat astrocytes. Put plainly: AKT phosphorylation in primary rat astrocytes (MSD pAKT assay). The settings on record: Astrocyte, 10 min, 10-minute exposure, mean of n=4. On the procedure:
as §1, §2
The pAKT (phosphorylated AKT) assay was performed according to the manufacturer's protocol. Briefly, MSD pAKT plates were blocked for 1-2 hours by adding 150 μL of blocker A prepared in 1× Tris wash buffer. […] Following antibody incubation, plates were washed three times with 150 μL of 1× Tris wash buffer and 1× read buffer (150 μL/well) was added. Finally, plates were read in the MSD imager platform to assess pAKT levels.
as §3

The structures appear in SMILES notation.

One may read the EC50 as the concentration needed to bring the measured effect to its halfway point. High values mean lower potency in that assay, low ones higher potency in that assay.

On to `CC(C)Oc1ccc(-c2nc(-c3cccc4c3CCC4NCC(=O)O)no2)cc1C#N` (stereo not shown) [Compound 3], for which the EC50 is 0.11 nM in assay [1], 0.5 nM in assay [2], 0.13 nM in assay [3] and 0.23 nM in assay [4].

For the origin of these results see US11207301B2, “Sphingosine 1 phosphate receptor agonists for neuroprotection” (RECEPTOS LLC, priority 2017, dated 2021).
